Measured values taken from PMC6302548, “Dual Inhibition of the Lactate Transporters MCT1 and MCT4 Is Synthetic Lethal with Metformin due to NAD+ Depletion in Cancer Cells” (Cell Reports, 2018).

Tests used:
[1] = target: T1, MCT4 (monocarboxylate transporter 4) (Homo sapiens, UniProt O15427); assay: intracellular lactate accumulation and 3H-lactate efflux in HAP1 MCT1-KO cells; DARTS in HCT116 membrane extracts; format: cell-based
T1 construct: gene SLC16A3
T1 sequence (O15427 2-465): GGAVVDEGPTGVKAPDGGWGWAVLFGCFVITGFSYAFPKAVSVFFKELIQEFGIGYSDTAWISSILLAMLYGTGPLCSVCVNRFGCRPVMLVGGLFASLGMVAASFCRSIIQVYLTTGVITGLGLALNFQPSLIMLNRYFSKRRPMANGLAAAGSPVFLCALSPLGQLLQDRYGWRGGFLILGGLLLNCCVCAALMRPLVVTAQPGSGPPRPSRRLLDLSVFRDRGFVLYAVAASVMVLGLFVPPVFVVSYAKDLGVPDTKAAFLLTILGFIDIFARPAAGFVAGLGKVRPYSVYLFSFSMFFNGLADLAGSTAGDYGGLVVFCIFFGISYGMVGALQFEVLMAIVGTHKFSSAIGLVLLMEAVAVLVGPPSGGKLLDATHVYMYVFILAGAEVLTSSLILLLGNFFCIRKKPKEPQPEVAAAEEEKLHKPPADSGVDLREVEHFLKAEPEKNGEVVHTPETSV
T1 sequence (P35613 22-385 partner): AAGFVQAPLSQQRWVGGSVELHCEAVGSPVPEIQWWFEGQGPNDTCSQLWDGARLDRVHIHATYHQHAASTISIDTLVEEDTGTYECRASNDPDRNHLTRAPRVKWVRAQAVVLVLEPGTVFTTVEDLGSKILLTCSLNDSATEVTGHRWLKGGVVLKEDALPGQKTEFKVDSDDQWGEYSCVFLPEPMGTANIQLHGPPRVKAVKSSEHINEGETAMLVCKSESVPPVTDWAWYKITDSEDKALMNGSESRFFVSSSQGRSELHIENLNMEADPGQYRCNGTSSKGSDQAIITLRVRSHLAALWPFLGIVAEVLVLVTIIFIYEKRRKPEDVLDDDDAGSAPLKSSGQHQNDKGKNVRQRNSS

[2] = target: T2, MCT1 (monocarboxylate transporter 1) (Homo sapiens, UniProt P53985); assay: intracellular lactate accumulation and 3H-lactate efflux in HAP1 MCT4-KO cells; DARTS in HCT116 membrane extracts
T2 construct: gene SLC16A1
T2 sequence (P53985 1-500): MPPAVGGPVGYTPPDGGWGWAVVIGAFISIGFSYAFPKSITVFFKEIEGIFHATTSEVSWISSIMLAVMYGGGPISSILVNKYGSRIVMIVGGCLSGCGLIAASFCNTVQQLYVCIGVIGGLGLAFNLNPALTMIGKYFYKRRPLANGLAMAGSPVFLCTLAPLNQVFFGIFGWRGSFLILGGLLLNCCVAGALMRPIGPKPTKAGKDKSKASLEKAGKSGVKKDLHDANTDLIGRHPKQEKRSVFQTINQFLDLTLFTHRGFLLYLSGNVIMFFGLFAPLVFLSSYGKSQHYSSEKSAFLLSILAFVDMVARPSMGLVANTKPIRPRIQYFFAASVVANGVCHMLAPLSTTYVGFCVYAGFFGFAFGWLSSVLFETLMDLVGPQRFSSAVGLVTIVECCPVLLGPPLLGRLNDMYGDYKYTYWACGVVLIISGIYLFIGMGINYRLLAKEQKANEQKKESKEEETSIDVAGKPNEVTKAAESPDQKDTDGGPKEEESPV
T2 sequence (P35613 22-385 partner): T1 sequence (P35613 22-385 partner)

IC50 [1]: ~40 nM
IC50 [2]: ~2500 nM
Structure (SMILES): CCOC(=O)Oc1c(OC)cc(C(=O)O[C@@H]2C[C@@H]3CN4CCc5c([nH]c6cc(OC)ccc56)[C@H]4C[C@@H]3[C@H](C(=O)OC)[C@H]2OC)cc1OC [Syrosingopine]
